{"source": "patent US20230218710A1", "about": "“METHOD OF TREATING CORONAVIRUS INFECTIONS” (priority 2020, published 2023)", "key": {"Apelin Receptor (APJ)": {"target": "T1, Apelin Receptor (APJ) (Homo sapiens, UniProt P35414)", "T1 construct": "host or cells: CHO-K1 AGTRL1 Gi cells", "T1 sequence (P35414 1-380)": "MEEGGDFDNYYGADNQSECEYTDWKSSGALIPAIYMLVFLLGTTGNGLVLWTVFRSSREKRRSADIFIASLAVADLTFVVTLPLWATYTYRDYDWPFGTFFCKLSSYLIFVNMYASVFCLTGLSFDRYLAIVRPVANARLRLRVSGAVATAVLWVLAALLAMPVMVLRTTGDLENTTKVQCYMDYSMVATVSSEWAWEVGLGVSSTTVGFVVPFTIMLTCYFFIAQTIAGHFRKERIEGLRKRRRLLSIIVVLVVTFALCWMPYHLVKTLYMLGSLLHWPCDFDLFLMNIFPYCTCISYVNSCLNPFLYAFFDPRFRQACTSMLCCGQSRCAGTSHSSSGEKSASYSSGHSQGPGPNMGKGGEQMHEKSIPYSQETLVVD", "experiment": "Activation of Ras in cultured cells overexpressing APJ", "format": "cell-based", "conditions": "50 μM peptide, 1 min; 100 nM Pyr-Apelin-13 = positive control", "protocol": "Peptides were initially prepared as 100× stocks in H2O. […] Following a 1 min incubation, the cells were placed on ice, the supernatant was removed, and washed twice with cold HBSS. The HBSS was removed and the cells were immediately lysed in 150 μl/well of lysis buffer included with Active Ras Detection kit (Cell Signaling Technology; Danvers, Mass.); lysis buffer was supplemented with 1 mM PMSF (Millipore-Sigma; Saint Louis, Mo.) and Halt Protease/Phosphatase Inhibitor Cocktail (Thermo-Fisher; Waltham, Mass.) prior to use. The wells were immediately scraped and lysates transferred to microfuge tubes. The samples were then placed on ice for 10 min. […] Visualization and quantification of Ras recovery (GTP-bound/active Ras) in samples were performed with Azure Biosystems C400 Imager and AzureSpot analysis software (Dublin, Calif.). […] Each data point represents the average of duplicate assays."}, "[1]": {"tested_on": "LPS-induced acute lung tissue damage", "conditions": "animals; Petrescu et al. 2010; cited from earlier work"}, "[2]": {"tested_on": "LPS-induced acute lung injury mouse model", "experiment": "LPS-induced acute lung injury model in mouse (Example 6)", "format": "in vivo, mice", "conditions": "10 nmol/kg i.p.; for Mean (SEM) Lung Weight: normalized to body weight", "protocol": "The effect of the peptides of the current invention on acute lung injury can be assessed in an LPS-induced acute lung injury mouse model by monitoring outcomes such as lung weight, fluid accumulation, cytokine secretion in blood or bronchoalveolar lavage fluid (BALF), neutrophil infiltration into lung tissues, and assessment of acute lung injury score by histopathology. Acute lung injury was induced in male C57BL/6 mice (6 to 8 weeks old) by intratracheal administration of 40 μL lipopolysaccharide (LPS) (Sigma Aldrich, St. Louis, Mo.) in PBS at 5 mg/kg. Control animals received intratracheal PBS alone. […] Treatments were administered 1 h prior to LPS for animals designated for sacrifice at 4 h after LPS, or at both 1 h prior to and 6 h after LPS for animals designated for sacrifice at 24 h after LPS. At 4 or 24 hours post LPS administration, tissues were harvested. Lungs were weighed, flushed with Hanks Buffer to provide bronchoalveolar lavage fluid (BALF). Lungs were fixed in 10% neutral buffered formalin (NBF) for histopathology. Tissue slides were stained with hematoxylin and eosin (H&E) and evaluated and scored with light microscopy of 5 representative microscopic fields (100× magnification) scoring on a 0-5 scale using standard methods (Matute-Bello G et al 2011. An Official American Thoracic Society Workshop Report: Features and Measurements of Experimental Acute Lung Injury in Animals. Am J Respir Cell Mol Biol 44:725-38). The average score for five fields was calculated for each animal. Levels of pro-inflammatory cytokines in BALF were determined using a meso scale discovery (MSD) system. Data for test peptides were compared to the vehicle control group. Lung weights were normalized to body weight."}, "[3]": {"tested_on": "LPS-induced tissue damage in the liver", "conditions": "rats; Zhou et al. 2018; cited from earlier work"}, "[4]": {"conditions": "histopathology, 0-5 scale, 24 h after LPS"}}, "note": "Where a name gives a salt, the structure may show the parent alone. Marks after values point to notes of the source that are not given here."}
{"compound": "CSCC[C@H](NC(=O)CNC(=O)[C@H](CCSC)NC(=O)[C@H](CCSC)NC(=O)[C@H](CCCNC(=N)N)NC(=O)[C@@H](N)CCCNC(=N)N)C(=O)N[C@H](C(=O)N[C@@H](Cc1ccccc1)C(=O)N[C@@H](CCC(N)=O)C(=O)N[C@@H](CO)C(=O)N[C@@H](CC(C)C)C(=O)N[C@@H](CS)C(=O)NCC(=O)N[C@H](C)C(=O)O)C(C)C", "note": "[SEQ ID NO: 15 HCl salt]", "values": [{"measurement": "GTP-Ras (% of Positive Control)", "setting": "Apelin Receptor (APJ)", "result": 90.8, "unit": "%"}]}
{"compound": "(PEG12)KRRLLGLVFQSLCG(dA) [SEQ ID NO: 37 Acetate salt] (KRRLLGLVFQSLCGA; N-terminal PEG12, C-terminal D-Ala, acetate salt; (1)..(1) PEG12; (15)..(15) D-Ala)", "values": [{"measurement": "GTP-Ras (% of Positive Control)", "setting": "Apelin Receptor (APJ)", "result": 79.2, "unit": "%"}]}
{"compound": "CSCC[C@H](NC(=O)[C@@H]1CCCN1C(=O)CNC(=O)[C@H](CCCCN)NC(=O)[C@H](Cc1c[nH]cn1)NC(=O)[C@H](CO)NC(=O)[C@H](CC(C)C)NC(=O)[C@H](CCCNC(=N)N)NC(=O)[C@@H]1CCCN1C(=O)[C@H](CCCNC(=N)N)NC(=O)[C@@H](N)CCC(N)=O)C(=O)N1CCC[C@H]1C(=O)N[C@@H](Cc1ccccc1)C(=O)O", "note": "[Apelin-13]", "values": [{"measurement": "Pulmonary vascular leakage resulting from LPS-induced acute lung tissue damage (in words)", "setting": "[1]", "result": "reduce pulmonary vascular leakage"}, {"measurement": "Pro-inflammatory Cytokine Level IFNγ", "setting": "[2]; BALF, 4 h after LPS", "result": 0.04, "unit": "pg/mL"}, {"measurement": "Pro-inflammatory Cytokine Level IL-1β", "setting": "[2]; BALF, 4 h after LPS", "result": 123, "unit": "pg/mL"}, {"measurement": "Pro-inflammatory Cytokine Level IL-6", "setting": "[2]; BALF, 4 h after LPS", "result": 4540, "unit": "pg/mL"}, {"measurement": "Pro-inflammatory Cytokine Level IL-17-A", "setting": "[2]; BALF, 4 h after LPS", "result": 0.87, "unit": "pg/mL"}, {"measurement": "Pro-inflammatory Cytokine Level IL-17-C", "setting": "[2]; BALF, 4 h after LPS", "result": 1.84, "unit": "pg/mL"}, {"measurement": "Pro-inflammatory Cytokine Level IL-23", "setting": "[2]; BALF, 4 h after LPS", "result": 0.68, "unit": "pg/mL"}, {"measurement": "Pro-inflammatory Cytokine Level KC/GRO", "setting": "[2]; BALF, 4 h after LPS", "result": 3210, "unit": "pg/mL"}, {"measurement": "Pro-inflammatory Cytokine Level TNFα", "setting": "[2]; BALF, 4 h after LPS", "result": 15500, "unit": "pg/mL"}, {"measurement": "Mean (SEM) Alveolar Neutrophil Infiltration Score", "setting": "[2]; [4]", "result": "1.40 (0.21)"}, {"measurement": "Mean (SEM) Interstitial Neutrophil Infiltration Score", "setting": "[2]; [4]", "result": "1.13 (0.11)"}, {"measurement": "Mean (SEM) Composite Lung Injury Score", "setting": "[2]; histopathology, 24 h after LPS", "result": "2.58 (0.29)"}, {"measurement": "Mean (SEM) Lung Weight", "setting": "[2]; 4 h after LPS", "result": "1.03 (0.03)** g"}, {"measurement": "Mean (SEM) Lung Weight", "setting": "[2]; 24 h after LPS", "result": "1.32 (0.03)* g"}, {"measurement": "Tissue damage in the liver induced by LPS (in words)", "setting": "[3]", "result": "attenuated tissue damage in the liver"}]}
{"compound": "CSCC[C@H](NC(=O)CNC(=O)[C@H](CCSC)NC(=O)[C@H](CCSC)NC(=O)[C@H](CCCNC(=N)N)NC(=O)[C@@H](N)CCCNC(=N)N)C(=O)N[C@H](C(=O)N[C@@H](Cc1ccccc1)C(=O)N[C@@H](CCC(N)=O)C(=O)N[C@@H](CO)C(=O)N[C@@H](CC(C)C)C(=O)N[C@@H](CS)C(=O)NCC(=O)N[C@H](C)C(=O)O)C(C)C", "note": "[SEQ ID NO: 15 Acetate salt]", "values": [{"measurement": "GTP-Ras (% of Positive Control)", "setting": "Apelin Receptor (APJ)", "result": 64.9, "unit": "%"}]}
